# Results published in PubChem BioAssay (NCI).
#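 Test compounds were applied to cells in 96-well plates for 48 hours at 5 doses. At the GI50, growth is halved. TGI is the concentration that stops growth completely.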
# How the values were obtained:
# Test in all cases: growth of human tumour cells (NCI), 48 h
# [1] = system: M14 melanoma
# [2] = system: SR leukemia
# [3] = system: K-562 leukemia
# [4] = system: MCF7 breast
# [5] = system: TK-10 renal
# [6] = system: CAKI-1 renal
# [7] = system: HL-60(TB) leukemia
# [8] = system: SK-MEL-5 melanoma
# [9] = system: HCT-15 colon
# [10] = system: SF-268 CNS
# [11] = system: NCI-H460 lung
# [12] = system: SNB-75 CNS
# [13] = system: HCT-116 colon
# [14] = system: SF-539 CNS
# [15] = system: SK-MEL-2 melanoma
# [16] = system: KM12 colon
# [17] = system: IGROV1 ovarian
# [18] = system: HS 578T breast
# [19] = system: NCI-H23 lung
# [20] = system: SF-295 CNS
# [21] = system: DU-145 prostate
# [22] = system: LOX IMVI melanoma
# [23] = system: SK-OV-3 ovarian
# [24] = system: T-47D breast
# [25] = system: HOP-92 NSCLC
# [26] = system: OVCAR-3 ovarian
# [27] = system: SN12C renal
# [28] = system: MOLT-4 leukemia
# [29] = system: UACC-257 melanoma
# [30] = system: SW-620 colon
# [31] = system: A549 NSCLC
# [32] = system: MDA-MB-435
# [33] = system: EKVX NSCLC
# [34] = system: BT-549 breast
# [35] = system: U251 CNS
# [36] = system: HOP-62 NSCLC
# [37] = system: NCI-H522 lung
# [38] = system: 786-0 renal
# [39] = system: UACC-62 melanoma
# [40] = system: ACHN renal
# [41] = system: A498 renal
# [42] = system: HCC-2998 colon
# [43] = system: NCI-H226 lung
# [44] = system: RXF 393 renal
# [45] = system: UO-31 renal
# [46] = system: OVCAR-5 ovarian
# [47] = system: HT29 colon
# [48] = system: COLO 205 colon
# [49] = system: OVCAR-4 ovarian
# [50] = system: MALME-3M melanoma
# [51] = system: OVCAR-8 ovarian
# [52] = system: CCRF-CEM leukemia
# [53] = system: NCI/ADR-RES ovarian
# [54] = system: SK-MEL-28 melanoma
# [55] = system: RPMI-8226 leukemia
# [56] = system: PC-3 prostate
# [57] = system: MDA-MB-231 breast
# [58] = system: SNB-19 CNS
smiles,measurement,setting,value
CC/C(=C\c1ccc(N(C)C)cc1)c1ccncc1,GI50,[1],4.37 µM
same,TGI,[1],54.6 µM
same,GI50,[2],3.24 µM
same,TGI,[2],30.1 µM
same,GI50,[3],3.78 µM
same,TGI,[3],> 100 µM
same,GI50,[4],9.31 µM
same,TGI,[4],> 100 µM
same,GI50,[5],12.9 µM
same,TGI,[5],> 100 µM
same,GI50,[6],3.42 µM
same,TGI,[6],> 100 µM
same,GI50,[7],4.06 µM
same,TGI,[7],29.3 µM
same,GI50,[8],3.43 µM
same,TGI,[8],16.4 µM
same,GI50,[9],2.82 µM
same,TGI,[9],> 100 µM
same,GI50,[10],11.2 µM
same,TGI,[10],> 100 µM
same,GI50,[11],3.79 µM
same,TGI,[11],> 100 µM
same,GI50,[12],6.88 µM
same,TGI,[12],47.7 µM
same,GI50,[13],3.89 µM
same,TGI,[13],> 100 µM
same,GI50,[14],7.35 µM
same,TGI,[14],74.6 µM
same,GI50,[15],8.51 µM
same,TGI,[15],> 100 µM
same,GI50,[16],3.84 µM
same,TGI,[16],> 100 µM
same,GI50,[17],5.47 µM
same,TGI,[17],> 100 µM
same,GI50,[18],4.13 µM
same,TGI,[18],67.2 µM
same,GI50,[19],4.96 µM
same,TGI,[19],> 100 µM
same,GI50,[20],3.44 µM
same,TGI,[20],21.1 µM
same,GI50,[21],9.47 µM
same,TGI,[21],> 100 µM
same,GI50,[22],4.05 µM
same,TGI,[22],> 100 µM
same,GI50,[23],7.87 µM
same,TGI,[23],53.3 µM
same,GI50,[24],4.16 µM
same,TGI,[24],> 100 µM
same,GI50,[25],1.89 µM
same,TGI,[25],9.94 µM
same,GI50,[26],4.13 µM
same,TGI,[26],29.7 µM
same,GI50,[27],5.96 µM
same,TGI,[27],> 100 µM
same,GI50,[28],5.09 µM
same,TGI,[28],> 100 µM
same,GI50,[29],11.6 µM
same,TGI,[29],> 100 µM
same,GI50,[30],4.04 µM
same,TGI,[30],> 100 µM
same,GI50,[31],5.5 µM
same,TGI,[31],> 100 µM
same,GI50,[32],1.68 µM
same,TGI,[32],7.51 µM
same,GI50,[33],3.29 µM
same,TGI,[33],> 100 µM
same,GI50,[34],4.38 µM
same,TGI,[34],23.5 µM
same,GI50,[35],4.82 µM
same,TGI,[35],48.7 µM
same,GI50,[36],4.33 µM
same,TGI,[36],33.7 µM
same,GI50,[37],5.05 µM
same,TGI,[37],> 100 µM
same,GI50,[38],6.31 µM
same,TGI,[38],46.4 µM
same,GI50,[39],5.04 µM
same,TGI,[39],> 100 µM
same,GI50,[40],5.87 µM
same,TGI,[40],> 100 µM
same,GI50,[41],4.35 µM
same,TGI,[41],> 100 µM
same,GI50,[42],6.58 µM
same,TGI,[42],> 100 µM
same,GI50,[43],14.1 µM
same,TGI,[43],> 100 µM
same,GI50,[44],4.25 µM
same,TGI,[44],20.8 µM
same,GI50,[45],6.57 µM
same,TGI,[45],> 100 µM
same,GI50,[46],33 µM
same,TGI,[46],> 100 µM
same,GI50,[47],4.43 µM
same,TGI,[47],> 100 µM
same,GI50,[48],3.94 µM
same,TGI,[48],21.1 µM
same,GI50,[49],8.67 µM
same,TGI,[49],> 100 µM
same,GI50,[50],4.52 µM
same,TGI,[50],> 100 µM
same,GI50,[51],6.16 µM
same,TGI,[51],> 100 µM
same,GI50,[52],8.13 µM
same,TGI,[52],> 100 µM
same,GI50,[53],2.38 µM
same,TGI,[53],6.09 µM
same,GI50,[54],> 100 µM
same,TGI,[54],> 100 µM
same,GI50,[55],5.13 µM
same,TGI,[55],55.2 µM
same,GI50,[56],10.3 µM
same,TGI,[56],> 100 µM
same,GI50,[57],6.53 µM
same,TGI,[57],80.1 µM
same,GI50,[58],9.09 µM
same,TGI,[58],> 100 µM
